Measured values: ChEMBL document CHEMBL3132807, “Chemical motifs that redox cycle and their associated toxicity” (Medchemcomm, 2013)
pEC50: −log10 of the molar value.

Key:
[1] = Induction of ROS generation assessed as generation of H2O2 measured as oxidation of phenol red after 60 mins by phenol red assay; format: physicochemical
[2] = Cytotoxicity against human THLE cells assessed as ATP depletion after 4 hrs by CellTitre-Glo assay; format: functional, cell-based
[3] = Cytotoxicity against human THLE cells assessed as ATP depletion after 72 hrs by CellTitre-Glo assay; format: functional, cell-based
THLE = experiment: Cytotoxicity against human THLE cells assessed as ATP depletion by CellTitre-Glo assay; format: functional, cell-based; settings: TDE = time-dependent effect
[4] = Cytotoxicity against human THLE cells assessed as ATP depletion after 24 hrs by CellTitre-Glo assay; format: functional, cell-based

Compound	EC50 at 60 min [1]	pEC50 [2]	pEC50 [3]	Activity (THLE)	pEC50 [4]
Cc1c2cc3c(ccc4ccccc43)oc-2nc(=O)c1C#N	11 µM	< 3.52	< 3.52	tde	< 3.52
CCCc1nc2c(=O)n(C)c(=O)nc-2n(C)n1	1 µM	4.78	4.89	tde	5.04
COc1cc(/C=C2\C(=O)NC(=O)C3=C2CCCC3)cc(OC)c1OC	0.5 µM	–	–	–	–
Cc1cc(C)n(C)c2cccc(=O)c1-2	33 µM	< 3.52	< 3.52	tde	< 3.52
O=C1NC(=O)/C(=C\c2ccc(O)cc2)C2=C1CCCC2	8.6 µM	–	–	–	–
Cn1ncnc2c(=O)n(C)c(=O)nc1-2	1 µM	5.57	5.49	tde	5.68
O=C1NC(=O)/C(=C\c2ccco2)C2=C1CCCC2	18 µM	–	–	–	–
Cn1nc(-c2ccccc2)cc2c(=O)n(C)c(=O)nc1-2	> 1000 µM	< 3.52	< 3.52	tde	< 3.52
Cn1nc(-c2ccc([N+](=O)[O-])cc2)nc2c(=O)n(C)c(=O)nc1-2	1 µM	5.28	5.49	tde	5.54
COc1cccc2c1C(=O)c1c(O)c3c(c(O)c1C2=O)C[C@@](O)(C(=O)CO)C[C@@H]3O[C@H]1C[C@H](N)[C@H](O)[C@H](C)O1 [DOXORUBICIN]	179 µM	3.67	6.28	tde	5.74
Cn1nc(-c2ccncc2)nc2c(=O)n(C)c(=O)nc1-2	1 µM	4.93	5.51	tde	5.24
O=C1NC(=O)/C(=C\c2ccc(Cl)cc2Cl)C2=C1CCCC2	236 µM	–	–	–	–
O=C1NC(=O)/C(=C\c2ccc(C(=O)O)cc2)C2=C1CCCC2	53 µM	–	–	–	–
Cn1nc(-c2cccs2)nc2c(=O)n(C)c(=O)nc1-2	2 µM	5.62	5.51	tde	5.54
O=c1[nH]c(=O)c2nccnc2[nH]1	713 µM	< 3.52	< 3.52	tde	< 3.52
NC(=O)N1C(=O)/C(=C(\O)c2ccc(Cl)s2)c2cc(Cl)ccc21	667 µM	< 3.52	3.93	tde	3.60
CC1=C(C)C(=O)c2ccccc2C1=O	110 µM	4.39	4.68	tde	4.64
O=C1NC(=O)/C(=C\c2ccc(C3CCCCC3)cc2)C2=C1CCCC2	121 µM	–	–	–	–
O=c1nc2[nH]c3ccccc3nc-2c(=O)[nH]1 [ALLOXAZINE]	226 µM	–	–	–	–
O=C1NC(=O)/C(=C\c2ccc(Cl)cc2)C2=C1CCCC2	0.5 µM	–	–	–	–
Cn1nc(/C=C/c2ccccc2)nc2c(=O)n(C)c(=O)nc1-2	1 µM	5.89	5.77	tde	5.92
COc1ccc(-c2nc3c(=O)n(C)c(=O)nc-3n(C)n2)cc1	2 µM	5.02	5.14	tde	5.22

Compound	EC50 at 60 min [1]	pEC50 [2]	pEC50 [3]	Activity (THLE)	pEC50 [4]
O=c1[nH]c(=O)c2nc3ccccc3nc2[nH]1 [ALLOXAZINE]	–	< 3.52	< 3.52	tde	< 3.52
CC(=O)N/C=C1/C(=O)NC(=O)C(C#N)=C1C	250 µM	–	–	–	–
Cn1c(=O)nc2sc3ccccc3nc-2c1=O	151 µM	4.97	5.09	tde	5.00
O=C1NC(=O)/C(=C\c2ccccc2)C2=C1CCC2	233 µM	< 3.52	< 3.52	tde	< 3.52
Cn1nc(-c2cccnc2)nc2c(=O)n(C)c(=O)nc1-2	1 µM	5.28	5.70	tde	5.68
Cn1nc(/C=C\c2ccccc2)nc2c(=O)n(C)c(=O)nc1-2	1 µM	5.32	5.17	tde	5.23
O=C1NC(=O)/C(=C\c2ccc(F)cc2)C2=C1CCCC2	60 µM	–	–	–	–
CC1=CC(=O)c2ccccc2C1=O [MENADIONE]	29 µM	4.03	4.75	tde	4.56
CCOc1ccc2nc3c(=O)n(C)c(=O)nc-3sc2c1	70 µM	4.34	4.17	tde	4.10
CCCCCc1ccc(/C=C2\C(=O)NC(=O)C3=C2CCCC3)cc1	9.2 µM	–	–	–	–
NC(=O)N1C(=O)/C(=C(\O)c2ccc(F)s2)c2cc(F)c(Cl)cc21	833 µM	< 3.52	3.97	tde	3.76
O=C1C=C(Cl)C(=O)c2ccccc21	2.5 µM	4.68	4.43	tde	4.86
CCn1cc(C(=O)O)c(=O)c2cc(F)c(N3CCNCC3)cc21 [NORFLOXACIN]	> 1000 µM	< 3.52	< 3.52	tde	< 3.52
O=C1NC(=O)/C(=C\c2ccccc2)C2=C1CCCC2 [TESIMIDE]	26 µM	< 3.52	< 3.52	tde	< 3.52
Cc1cc2nc3c(=O)[nH]c(=O)nc-3n(C[C@H](O)[C@H](O)[C@H](O)CO)c2cc1C [RIBOFLAVIN]	129 µM	< 3.52	< 3.52	tde	< 3.52
CCn1cc(C(=O)O)c(=O)c2ccc(C)nc21 [NALIDIXIC ACID]	> 1000 µM	< 3.52	< 3.52	tde	< 3.52
Cn1nc(-c2ccccc2)nc2c(=O)n(C)c(=O)nc1-2	2 µM	5.05	5.13	tde	5.35
O=C1NC(=O)/C(=C\c2ccncc2)C2=C1CCCC2	95 µM	–	–	–	–
C[n+]1cc2c3c(ccc2c2ccc4cc5c(cc4c21)OCO5)OCO3 [SANGUINARIUM]	513 µM	6.00	6.03	tde	6.05
Nc1ccc2nc3c(=O)[nH]c(=O)nc-3[nH]c2c1	110 µM	3.58	3.61	tde	3.60
C[n+]1ccc(-c2cc[n+](C)cc2)cc1 [PARAQUAT]	> 1000 µM	< 3.52	< 3.52	tde	< 3.52
